Assay results as given in US9981916B2 (Genentech, Inc., priority 2013, dated 2018).

Biological target: T1, RORc ligand binding domain (Homo sapiens, UniProt P51449)
T1 construct: host or cells: E. coli
T1 sequence (P51449 269-508 limits assumed): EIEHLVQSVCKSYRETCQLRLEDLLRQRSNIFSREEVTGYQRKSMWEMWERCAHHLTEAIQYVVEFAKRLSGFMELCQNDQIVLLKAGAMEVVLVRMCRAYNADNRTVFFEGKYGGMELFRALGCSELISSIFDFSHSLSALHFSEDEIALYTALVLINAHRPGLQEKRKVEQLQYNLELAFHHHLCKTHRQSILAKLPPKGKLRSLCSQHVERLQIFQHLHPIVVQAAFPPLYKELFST
Test: In vitro RORc ligand binding assay (25-[3H]hydroxycholesterol displacement, filter binding)
Settings: 6 nM 25-[3H]hydroxycholesterol, 0.6 ug/mL RORc receptor, 3 h at 25° C.
Summary of the method: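 Filter-binding displacement of 6 nM 25-[3H]hydroxycholesterol from RORc receptor (0.6 ug/mL) in 50 mM HEPES pH 7.4, 150 mM NaCl, 5 mM MgCl2, 1 mM DTT, 0.01% BSA, 5% DMSO; 3 h at 25° C. NSB defined with 1 uM 25-hydroxycholesterol; scintillation counting gave Kiapp, IC50 or % inhibition (screening at 1 and 10 uM).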

IC50 [nM] | SMILES
877 | CCNC[C@@]12CC[C@@H](c3cc(-c4c(F)cccc4F)nnc31)C2(C)C [Example 331, N-(((5R,8S)-3-(2,6-difluorophenyl)-9,9-dimethyl-5,6,7,8-tetrahydro-5,8-methanocinnolin-8-yl)methyl)ethanamine]
600 | CC1(C)[C@@H]2CC[C@@]1(C(=O)N1CCC[C@@H]1CO)c1nnc(-c3c(F)cccc3F)cc12 [Example 204, ((5S,8S)-3-(2,6-difluorophenyl)-9,9-dimethyl-5,6,7,8-tetrahydro-5,8-methanocinnolin-8-yl) ((R)-2-(hydroxymethyl)pyrrolidin-1-yl)methanone]
1500 | CC1(C)[C@H]2CC[C@]1(C(=O)NC1CCC1)c1nnc(-c3ccccc3F)cc12 [Example 177, (5R,8R)-N-cyclobutyl-3-(2-fluorophenyl)-9,9-dimethyl-5,6,7,8-tetrahydro-5,8-methanocinnoline-8-carboxamide]
4 | CCN(C[C@@]12CC[C@@H](c3cc(-c4c(F)cccc4F)nnc31)C2(C)C)c1ncccn1 [Example 164, N-(((5R,8S)-3-(2,6-difluorophenyl)-9,9-dimethyl-5,6,7,8-tetrahydro-5,8-methanocinnolin-8-yl)methyl)-N-ethylpyrimidin-2-amine]
1000 | CC(NC(=O)[C@@]12CC[C@@H](c3cc(-c4ccccc4F)nnc31)C2(C)C)c1ccccc1 (stereo partly drawn) [Example 183, (5R,8R)-3-(2-fluorophenyl)-9,9-dimethyl-N-(1-phenylethyl)-5,6,7,8-tetrahydro-5,8-methanocinnoline-8-carboxamide]
8 | Cn1c([C@@]23CC[C@@H](c4cc(-c5c(F)cccc5F)nnc42)C3(C)C)cccc1=O [Example 165, 6-((5R,8S)-3-(2,6-difluorophenyl)-9,9-dimethyl-5,6,7,8-tetrahydro-5,8-methanocinnolin-8-yl)-1-methylpyridin-2(1H)-one]
42 | CC1(C)[C@@H]2CC[C@@]1(C(=O)N1CCOCC1)c1nnc(-c3c(F)cccc3F)cc12 [Example 54, [(5S,8S)-3-(2,6-difluorophenyl)-9,9-dimethyl-6,7-dihydro-5,8-methanocinnolin-8(5H)-yl](morpholin-4-yl)methanone]
819 | CC1(C)[C@@H]2CC[C@@]1(C(=O)N1CC(CO)C1)c1nnc(-c3c(F)cccc3F)cc12 [Example 233, ((5S,8S)-3-(2,6-difluorophenyl)-9,9-dimethyl-5,6,7,8-tetrahydro-5,8-methanocinnolin-8-yl)(3-(hydroxymethyl)azetidin-1-yl)methanone]
453 | CC1(C)[C@H]2CC[C@]1(CN1CCCC1=O)c1nnc(-c3c(F)cccc3F)cc12 [Example 273, 1-(((5R,8S)-3-(2,6-difluorophenyl)-9,9-dimethyl-5,6,7,8-tetrahydro-5,8-methanocinnolin-8-yl)methyl)pyrrolidin-2-one]
2470 | COC1CCN(C(=O)[C@@]23CC[C@@H](c4cc(-c5ccccc5F)nnc42)C3(C)C)CC1 [Example 173, ((5R,8R)-3-(2-fluorophenyl)-9,9-dimethyl-5,6,7,8-tetrahydro-5,8-methanocinnolin-8-yl)(4-methoxypiperidin-1-yl)methanone]
789 | COCCOC[C@]12CC[C@H](c3cc(-c4ccccc4F)nnc31)C2(C)C [Example 26, (5S,8S)-3-(2-fluorophenyl)-8-[(2-methoxyethoxy)methyl]-9,9-dimethyl-5,6,7,8-tetrahydro-5,8-methanocinnoline]
11 | CCN(C[C@@]12CC[C@@H](c3cc(-c4c(F)cccc4F)nnc31)C2(C)C)S(=O)(=O)CCC(F)(F)F [Example 345, N-(((5R,8S)-3-(2,6-difluorophenyl)-9,9-dimethyl-5,6,7,8-tetrahydro-5,8-methanocinnolin-8-yl)methyl)-N-ethyl-3,3,3-trifluoropropane-1-sulfonamide]
1430 | CNC(=O)[C@H]1[C@@H]2CN(C(=O)[C@]34CC[C@H](c5cc(-c6c(F)cccc6F)nnc53)C4(C)C)C[C@@H]21 [Example 222, (1R,5S,6S)-3-((5S,8S)-3-(2,6-difluorophenyl)-9,9-dimethyl-5,6,7,8-tetrahydro-5,8-methanocinnoline-8-carbonyl)-N-methyl-3-azabicyclo[3.1.0]hexane-6-carboxamide]
423 | CC1(C)[C@H]2CC[C@]1(c1ccnn1CCO)c1nnc(-c3c(F)cccc3F)cc12 [Example 269, 2-(5-((5R,8S)-3-(2,6-difluorophenyl)-9,9-dimethyl-5,6,7,8-tetrahydro-5,8-methanocinnolin-8-yl)-1H-pyrazol-1-yl)ethanol]
1730 | Cc1nc(C[C@]23CC[C@H](c4cc(-c5ccccc5F)nnc42)C3(C)C)no1 [Example 39, (5S,8S)-3-(2-fluorophenyl)-9,9-dimethyl-8-[(5-methyl-1,2,4-oxadiazol-3-yl)methyl]-5,6,7,8-tetrahydro-5,8-methanocinnoline]
19 | CCN(C[C@@]12CC[C@@H](c3cc(-c4c(F)cccc4F)nnc31)C2(C)C)C(C)=O [Example 157, N-(((5R,8S)-3-(2,6-difluorophenyl)-9,9-dimethyl-5,6,7,8-tetrahydro-5,8-methanocinnolin-8-yl)methyl)-N-ethylacetamide]
241 | CC1(C)[C@@H]2CC[C@@]1(C(=O)N1C[C@@H]3C[C@H]1CO3)c1nnc(-c3c(F)cccc3F)cc12 [Example 231, (1S,4S)-2-oxa-5-azabicyclo[2.2.1]heptan-5-yl((5S,8S)-3-(2,6-difluorophenyl)-9,9-dimethyl-5,6,7,8-tetrahydro-5,8-methanocinnolin-8-yl)methanone]
8 | CCN(C[C@@]12CC[C@@H](c3cc(-c4c(F)cccc4F)nnc31)C2(C)C)C(=O)CO [Example 162, N-(((5R,8S)-3-(2,6-difluorophenyl)-9,9-dimethyl-5,6,7,8-tetrahydro-5,8-methanocinnolin-8-yl)methyl)-N-ethyl-2-hydroxyacetamide]
415 | Cc1noc([C@]23CC[C@H](c4cc(-c5c(F)cccc5F)nnc42)C3(C)C)n1 [Example 60, (5S,8S)-3-(2,6-difluorophenyl)-9,9-dimethyl-8-(3-methyl-1,2,4-oxadiazol-5-yl)-5,6,7,8-tetrahydro-5,8-methanocinnoline]
124 | CON(C)C(=O)[C@]12CC[C@H](c3cc(-c4c(F)cccc4F)nnc31)C2(C)C [Example 55, (5S,8S)-3-(2,6-difluorophenyl)-N-methoxy-N,9,9-trimethyl-6,7-dihydro-5,8-methanocinnoline-8(5H)-carboxamide]
1390 | CCOC(=O)c1nnc([C@@]23CC[C@@H](c4cc(-c5c(F)cccc5F)nnc42)C3(C)C)o1 [Example 327, ethyl 5-((5R,8R)-3-(2,6-difluorophenyl)-9,9-dimethyl-5,6,7,8-tetrahydro-5,8-methanocinnolin-8-yl)-1,3,4-oxadiazole-2-carboxylate]
192 | CN(C)[C@@]12CC[C@@H](c3cc(-c4ccccc4F)nnc31)C2(C)C [Example 90, (5R,8R)-3-(2-fluorophenyl)-N,N,9,9-tetramethyl-6,7-dihydro-5,8-methanocinnolin-8(5H)-amine]
759 | CC1(C)[C@@H]2CC[C@@]1(C(=O)NC1CCC1)c1nnc(-c3c(F)cccc3F)cc12 [Example 201, (5S,8S)-N-cyclobutyl-3-(2,6-difluorophenyl)-9,9-dimethyl-5,6,7,8-tetrahydro-5,8-methanocinnoline-8-carboxamide]
71 | CC1(C)[C@H]2CC[C@]1(NCC(F)F)c1nnc(-c3c(F)cccc3F)cc12 [Example 307, (5R,8R)-N-(2,2-difluoroethyl)-3-(2,6-difluorophenyl)-9,9-dimethyl-5,6,7,8-tetrahydro-5,8-methanocinnolin-8-amine]
79 | CC(=O)NC(C)(C)[C@@]12CC[C@@H](c3cc(-c4c(F)cccc4F)nnc31)C2(C)C [Example 321, N-(2-((5R,8S)-3-(2,6-difluorophenyl)-9,9-dimethyl-5,6,7,8-tetrahydro-5,8-methanocinnolin-8-yl)propan-2-yl)acetamide]
388 | CC1(C)[C@H]2CC[C@]1(Cc1nnc(CO)o1)c1nnc(-c3c(F)cccc3F)cc12 (stereo in doubt) [Example 76, (5-{[(5R,8R)-3-(2,6-difluorophenyl)-9,9-dimethyl-6,7-dihydro-5,8-methanocinnolin-8(5H)-yl]methyl}-1,3,4-oxadiazol-2-yl)methanol]
2200 | CC1(C)[C@H]2CC[C@]1(c1ncn[nH]1)c1nnc(-c3c(F)cccc3F)cc12 [Example 185, (5R,8R)-3-(2,6-difluorophenyl)-9,9-dimethyl-8-(1H-1,2,4-triazol-5-yl)-5,6,7,8-tetrahydro-5,8-methanocinnoline]
607 | Cc1ccn(C[C@]23CC[C@H](c4cc(-c5ccccc5F)nnc42)C3(C)C)n1 [Example 44, (5S,8R)-3-(2-fluorophenyl)-9,9-dimethyl-8-[(3-methyl-1H-pyrazol-1-yl)methyl]-5,6,7,8-tetrahydro-5,8-methanocinnoline]
19 | CCN(C[C@@]12CC[C@@H](c3cc(-c4c(F)cccc4F)nnc31)C2(C)C)c1nnc(C)o1 [Example 148, N-(((5R,8S)-3-(2,6-difluorophenyl)-9,9-dimethyl-5,6,7,8-tetrahydro-5,8-methanocinnolin-8-yl)methyl)-N-ethyl-5-methyl-1,3,4-oxadiazol-2-amine]
